Test results as given in paper PMC10528299, “Targeting FAK/PYK2 with SJP1602 for Anti-Tumor Activity in Triple-Negative Breast Cancer” (Current Issues in Molecular Biology, 2023).

What was measured:
Assay in all cases: Eurofins kinase profiling
Format in all cases: biochemical
CK1γ2(h) = target: T1, CK1γ2(h) (Homo sapiens, UniProt P78368); conditions: read-out: residual kinase activity CK1γ2(h)
T1 construct: purchased Eurofins KinaseProfiler
How it was run: (§1)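 Protein kinases were run in the KinaseProfiler radiometric format with the test compound at 1 µM, and activity was measured by incorporation of radiolabeled phosphate. The assays followed the provider's standard protocols as part of a 110-kinase panel.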

IR(h) = target: T2, IR(h) (Homo sapiens, UniProt P06213); conditions: read-out: residual kinase activity IR(h)
T2 construct: purchased Eurofins KinaseProfiler
How it was run: as §1

EGFR(L858R)(h) = target: T3, EGFR(L858R)(h) (Homo sapiens, UniProt P00533, L858R); conditions: read-out: residual kinase activity EGFR(L858R)(h)
T3 construct: purchased Eurofins KinaseProfiler
How it was run: as §1

PI3 Kinase (p120g)(h) = target: T4, PI3 Kinase (p120g)(h) (Homo sapiens, UniProt P48736); conditions: read-out: residual kinase activity PI3 Kinase (p120g)(h)
T4 construct: purchased Eurofins KinaseProfiler
How it was run: as §1

IKKε(h) = target: T5, IKKε(h) (Homo sapiens, UniProt Q14164); conditions: read-out: residual kinase activity IKKε(h)
T5 construct: purchased Eurofins KinaseProfiler
T5 sequence (Q14164 1-716): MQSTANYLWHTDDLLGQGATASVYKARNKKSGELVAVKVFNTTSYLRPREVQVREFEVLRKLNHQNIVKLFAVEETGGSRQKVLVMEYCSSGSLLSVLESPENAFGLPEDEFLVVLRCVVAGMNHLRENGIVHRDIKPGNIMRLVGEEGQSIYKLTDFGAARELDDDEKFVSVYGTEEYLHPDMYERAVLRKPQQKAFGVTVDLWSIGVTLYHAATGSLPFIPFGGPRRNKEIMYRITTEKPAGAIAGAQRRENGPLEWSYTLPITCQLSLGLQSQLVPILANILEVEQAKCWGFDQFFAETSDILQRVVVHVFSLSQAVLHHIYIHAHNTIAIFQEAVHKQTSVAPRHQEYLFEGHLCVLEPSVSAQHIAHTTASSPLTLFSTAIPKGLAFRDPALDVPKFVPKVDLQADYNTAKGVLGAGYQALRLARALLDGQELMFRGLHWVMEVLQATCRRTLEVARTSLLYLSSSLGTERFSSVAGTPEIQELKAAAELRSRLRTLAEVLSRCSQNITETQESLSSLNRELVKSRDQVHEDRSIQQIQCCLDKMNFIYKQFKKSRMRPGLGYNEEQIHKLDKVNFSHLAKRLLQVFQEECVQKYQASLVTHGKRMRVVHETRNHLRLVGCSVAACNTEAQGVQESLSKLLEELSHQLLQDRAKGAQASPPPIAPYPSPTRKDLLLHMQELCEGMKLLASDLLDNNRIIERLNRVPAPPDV
How it was run: as §1

Wee1(h) = target: T6, Wee1(h) (Homo sapiens, UniProt P30291); conditions: read-out: residual kinase activity Wee1(h)
T6 construct: purchased Eurofins KinaseProfiler
How it was run: as §1

Bmx(h) = target: T7, Bmx(h) (Homo sapiens, UniProt P51813); conditions: read-out: residual kinase activity Bmx(h)
T7 construct: purchased Eurofins KinaseProfiler
T7 sequence (P51813 1-675): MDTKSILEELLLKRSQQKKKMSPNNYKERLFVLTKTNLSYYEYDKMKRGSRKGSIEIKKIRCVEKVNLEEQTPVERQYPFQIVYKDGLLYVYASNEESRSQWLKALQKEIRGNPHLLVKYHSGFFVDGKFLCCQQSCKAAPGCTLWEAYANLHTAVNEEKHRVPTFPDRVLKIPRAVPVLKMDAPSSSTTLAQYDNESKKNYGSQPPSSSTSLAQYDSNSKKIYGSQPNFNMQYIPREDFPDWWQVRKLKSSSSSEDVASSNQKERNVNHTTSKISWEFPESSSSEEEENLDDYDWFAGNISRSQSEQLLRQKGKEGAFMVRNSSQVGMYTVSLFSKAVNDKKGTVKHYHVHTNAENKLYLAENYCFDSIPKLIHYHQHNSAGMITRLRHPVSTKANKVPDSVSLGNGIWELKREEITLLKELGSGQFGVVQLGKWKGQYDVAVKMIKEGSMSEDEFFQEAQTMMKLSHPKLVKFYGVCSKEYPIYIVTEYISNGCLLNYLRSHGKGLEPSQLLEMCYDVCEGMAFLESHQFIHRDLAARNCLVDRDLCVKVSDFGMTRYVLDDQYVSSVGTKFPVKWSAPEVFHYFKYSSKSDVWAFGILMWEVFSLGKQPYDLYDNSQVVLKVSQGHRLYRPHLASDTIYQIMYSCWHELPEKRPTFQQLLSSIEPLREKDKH
How it was run: as §1

Ros(h) = target: T8, Ros(h) (Homo sapiens, UniProt P08922); conditions: read-out: residual kinase activity Ros(h)
T8 construct: purchased Eurofins KinaseProfiler
How it was run: as §1

T8 sequence (P08922 28-2347): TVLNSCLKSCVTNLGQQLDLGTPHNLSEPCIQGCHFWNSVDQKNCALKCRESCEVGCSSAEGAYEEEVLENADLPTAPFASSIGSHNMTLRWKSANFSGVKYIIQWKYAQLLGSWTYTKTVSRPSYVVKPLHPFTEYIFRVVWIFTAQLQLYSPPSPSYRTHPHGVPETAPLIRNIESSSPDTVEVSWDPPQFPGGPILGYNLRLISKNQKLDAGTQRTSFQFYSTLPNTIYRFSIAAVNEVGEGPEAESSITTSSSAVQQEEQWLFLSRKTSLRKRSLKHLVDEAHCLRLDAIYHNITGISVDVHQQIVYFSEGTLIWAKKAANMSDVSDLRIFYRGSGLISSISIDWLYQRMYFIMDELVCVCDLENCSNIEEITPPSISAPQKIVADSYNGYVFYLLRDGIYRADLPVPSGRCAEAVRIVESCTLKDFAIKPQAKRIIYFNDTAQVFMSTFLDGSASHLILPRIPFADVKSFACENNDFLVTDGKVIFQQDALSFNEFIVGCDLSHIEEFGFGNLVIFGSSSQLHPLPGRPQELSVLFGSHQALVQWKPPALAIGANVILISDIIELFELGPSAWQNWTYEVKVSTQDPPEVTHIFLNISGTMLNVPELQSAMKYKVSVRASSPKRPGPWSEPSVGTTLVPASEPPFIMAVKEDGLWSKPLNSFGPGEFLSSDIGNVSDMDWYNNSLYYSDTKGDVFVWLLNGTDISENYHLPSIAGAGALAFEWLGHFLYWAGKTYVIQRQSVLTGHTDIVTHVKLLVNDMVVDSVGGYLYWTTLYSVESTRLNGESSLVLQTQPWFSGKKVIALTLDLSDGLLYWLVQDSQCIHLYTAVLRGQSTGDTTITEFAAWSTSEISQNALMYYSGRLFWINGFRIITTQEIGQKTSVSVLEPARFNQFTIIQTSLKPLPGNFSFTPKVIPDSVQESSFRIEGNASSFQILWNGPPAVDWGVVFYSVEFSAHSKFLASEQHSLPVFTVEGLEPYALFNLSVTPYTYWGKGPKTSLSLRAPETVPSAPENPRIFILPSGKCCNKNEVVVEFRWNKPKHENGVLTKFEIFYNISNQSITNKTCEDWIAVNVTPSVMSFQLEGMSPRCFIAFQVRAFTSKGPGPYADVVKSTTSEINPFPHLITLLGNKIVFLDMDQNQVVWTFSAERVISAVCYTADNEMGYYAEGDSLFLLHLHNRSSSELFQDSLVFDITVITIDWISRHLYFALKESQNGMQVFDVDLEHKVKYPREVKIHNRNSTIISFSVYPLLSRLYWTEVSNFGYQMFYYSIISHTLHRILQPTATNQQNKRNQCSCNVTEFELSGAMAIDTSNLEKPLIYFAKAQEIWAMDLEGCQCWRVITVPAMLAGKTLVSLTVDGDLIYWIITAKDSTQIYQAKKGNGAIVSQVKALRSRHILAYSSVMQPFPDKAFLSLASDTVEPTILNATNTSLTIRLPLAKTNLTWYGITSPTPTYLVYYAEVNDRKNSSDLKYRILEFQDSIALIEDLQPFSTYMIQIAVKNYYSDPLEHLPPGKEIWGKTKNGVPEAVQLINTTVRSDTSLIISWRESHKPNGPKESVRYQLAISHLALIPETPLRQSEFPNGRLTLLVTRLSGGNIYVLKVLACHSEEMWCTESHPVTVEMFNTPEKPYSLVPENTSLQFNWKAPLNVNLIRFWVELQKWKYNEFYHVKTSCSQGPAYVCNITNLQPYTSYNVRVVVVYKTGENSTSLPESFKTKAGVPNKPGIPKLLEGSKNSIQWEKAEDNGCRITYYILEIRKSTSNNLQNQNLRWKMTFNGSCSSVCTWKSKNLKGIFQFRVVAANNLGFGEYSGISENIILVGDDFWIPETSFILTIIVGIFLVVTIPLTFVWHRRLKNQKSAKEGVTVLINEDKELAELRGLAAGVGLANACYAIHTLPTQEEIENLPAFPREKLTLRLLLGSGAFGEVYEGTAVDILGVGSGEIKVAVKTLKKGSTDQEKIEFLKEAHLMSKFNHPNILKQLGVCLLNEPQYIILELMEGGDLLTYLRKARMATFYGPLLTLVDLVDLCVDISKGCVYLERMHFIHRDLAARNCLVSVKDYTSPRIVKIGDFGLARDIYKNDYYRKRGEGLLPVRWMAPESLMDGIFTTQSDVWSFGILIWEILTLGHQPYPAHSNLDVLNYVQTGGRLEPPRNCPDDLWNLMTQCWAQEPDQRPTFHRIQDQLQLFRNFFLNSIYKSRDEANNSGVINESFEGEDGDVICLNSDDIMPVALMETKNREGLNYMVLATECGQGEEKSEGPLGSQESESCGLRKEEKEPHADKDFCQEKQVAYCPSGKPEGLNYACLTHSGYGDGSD
T2 sequence (P06213 28-1382): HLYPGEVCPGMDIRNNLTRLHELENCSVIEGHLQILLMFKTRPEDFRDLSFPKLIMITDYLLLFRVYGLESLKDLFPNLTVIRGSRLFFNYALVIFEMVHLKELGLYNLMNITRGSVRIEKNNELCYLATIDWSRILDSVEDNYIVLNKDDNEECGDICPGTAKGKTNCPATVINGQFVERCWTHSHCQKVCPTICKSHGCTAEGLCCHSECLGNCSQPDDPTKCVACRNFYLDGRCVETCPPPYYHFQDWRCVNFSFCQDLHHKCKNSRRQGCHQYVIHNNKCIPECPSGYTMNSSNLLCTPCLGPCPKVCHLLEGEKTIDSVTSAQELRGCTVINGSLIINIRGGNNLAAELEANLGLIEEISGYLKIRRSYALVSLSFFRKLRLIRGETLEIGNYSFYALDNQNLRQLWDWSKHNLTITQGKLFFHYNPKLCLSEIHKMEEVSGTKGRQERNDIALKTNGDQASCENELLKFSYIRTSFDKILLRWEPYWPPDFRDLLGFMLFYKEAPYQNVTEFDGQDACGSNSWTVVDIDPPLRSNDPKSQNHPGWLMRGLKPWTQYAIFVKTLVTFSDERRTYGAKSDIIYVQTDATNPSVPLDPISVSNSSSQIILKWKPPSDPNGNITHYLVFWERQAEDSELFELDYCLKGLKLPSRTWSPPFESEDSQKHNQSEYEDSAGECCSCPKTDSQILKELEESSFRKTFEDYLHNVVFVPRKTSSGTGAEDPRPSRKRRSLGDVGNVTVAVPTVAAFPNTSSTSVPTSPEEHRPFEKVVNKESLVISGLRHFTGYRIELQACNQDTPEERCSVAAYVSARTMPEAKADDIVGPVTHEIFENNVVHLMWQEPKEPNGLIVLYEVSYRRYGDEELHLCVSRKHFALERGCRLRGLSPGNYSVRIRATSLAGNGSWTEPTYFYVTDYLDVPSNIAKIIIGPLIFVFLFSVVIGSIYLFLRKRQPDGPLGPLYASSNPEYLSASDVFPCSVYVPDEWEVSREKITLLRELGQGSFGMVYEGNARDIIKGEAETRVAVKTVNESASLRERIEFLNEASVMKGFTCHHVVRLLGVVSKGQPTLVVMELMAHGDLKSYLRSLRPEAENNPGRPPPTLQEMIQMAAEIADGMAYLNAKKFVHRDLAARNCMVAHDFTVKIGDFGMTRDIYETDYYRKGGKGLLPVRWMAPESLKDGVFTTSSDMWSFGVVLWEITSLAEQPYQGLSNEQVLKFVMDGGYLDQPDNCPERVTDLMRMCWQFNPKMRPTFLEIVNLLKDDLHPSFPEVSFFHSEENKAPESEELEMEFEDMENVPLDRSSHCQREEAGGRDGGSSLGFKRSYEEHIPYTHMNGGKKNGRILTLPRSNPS
T3 sequence (P00533 25-1210 L858R): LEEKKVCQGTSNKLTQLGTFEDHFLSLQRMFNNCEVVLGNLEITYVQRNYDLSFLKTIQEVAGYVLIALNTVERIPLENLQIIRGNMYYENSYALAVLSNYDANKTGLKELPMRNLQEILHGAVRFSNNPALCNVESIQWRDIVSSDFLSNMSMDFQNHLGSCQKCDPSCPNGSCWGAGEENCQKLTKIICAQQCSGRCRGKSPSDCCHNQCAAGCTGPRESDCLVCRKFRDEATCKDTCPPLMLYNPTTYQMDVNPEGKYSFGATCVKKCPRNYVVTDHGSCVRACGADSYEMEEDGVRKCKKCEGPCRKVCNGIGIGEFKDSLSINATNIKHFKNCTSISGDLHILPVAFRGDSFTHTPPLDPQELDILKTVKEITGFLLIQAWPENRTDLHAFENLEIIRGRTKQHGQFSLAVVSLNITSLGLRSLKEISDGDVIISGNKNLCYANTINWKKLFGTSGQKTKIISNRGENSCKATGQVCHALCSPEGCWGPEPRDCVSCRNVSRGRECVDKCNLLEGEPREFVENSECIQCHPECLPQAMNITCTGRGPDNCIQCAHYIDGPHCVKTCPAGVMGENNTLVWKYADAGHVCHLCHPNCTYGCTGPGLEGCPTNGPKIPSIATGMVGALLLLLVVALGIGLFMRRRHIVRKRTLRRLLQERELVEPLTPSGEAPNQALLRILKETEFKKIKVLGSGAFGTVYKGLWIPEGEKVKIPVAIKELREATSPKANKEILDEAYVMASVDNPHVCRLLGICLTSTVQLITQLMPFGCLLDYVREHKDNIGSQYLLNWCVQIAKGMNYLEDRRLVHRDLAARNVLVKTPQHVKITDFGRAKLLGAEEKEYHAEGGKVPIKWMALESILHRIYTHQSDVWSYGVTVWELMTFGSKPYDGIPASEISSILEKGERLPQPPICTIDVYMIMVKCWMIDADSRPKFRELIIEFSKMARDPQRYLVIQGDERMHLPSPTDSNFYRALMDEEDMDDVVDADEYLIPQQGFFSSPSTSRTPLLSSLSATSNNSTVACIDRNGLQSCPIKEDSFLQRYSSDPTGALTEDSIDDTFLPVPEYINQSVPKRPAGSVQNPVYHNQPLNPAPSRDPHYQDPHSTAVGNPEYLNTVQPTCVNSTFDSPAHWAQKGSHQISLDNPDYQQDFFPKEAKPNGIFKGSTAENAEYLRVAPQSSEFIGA

remaining activity at 1 µM (CK1γ2(h))	remaining activity at 1 µM (IR(h))	remaining activity at 1 µM (EGFR(L858R)(h))	remaining activity at 1 µM (PI3 Kinase (p120g)(h))	remaining activity at 1 µM (IKKε(h))	remaining activity at 1 µM (Wee1(h))	remaining activity at 1 µM (Bmx(h))	remaining activity at 1 µM (Ros(h))	SMILES
97%	105%	33%	101%	102%	88%	105%	103%	CONC(=O)c1ccccc1Nc1cc(Nc2cc(C)nn2C(C)C)ncc1Cl [GSK2256098]
64%	62%	134%	104%	88%	72%	47%	106%	CNC(=O)c1ccc(Nc2ncc(C(F)(F)F)c(NCc3nccnc3N(C)S(C)(=O)=O)n2)cc1 [VS-6063, Defactinib]

SMILES	remaining activity at 1 µM (CK1γ2(h))	remaining activity at 1 µM (IR(h))	remaining activity at 1 µM (EGFR(L858R)(h))	remaining activity at 1 µM (PI3 Kinase (p120g)(h))	remaining activity at 1 µM (IKKε(h))	remaining activity at 1 µM (Wee1(h))	remaining activity at 1 µM (Bmx(h))	remaining activity at 1 µM (Ros(h))
CNC(=O)c1cccc(C)c1Nc1nc(Nc2ccc(N3CCN(C4C5CC6CC4CC(O)(C6)C5)CC3)cc2OC)ncc1C(F)(F)F (stereo not drawn) [SJP1602, 2-((2-((4-(4-((2s,5r)-5-hydroxyadamantan-2-yl)piperazin-1-yl)-2-methoxyphenyl)amino)-5-(trifluoromethyl)pyrimidin-4-yl)amino)-N,3-dimethylbenzamide]	101%	103%	133%	85%	103%	101%	84%	104%
